Experimental data from patent publication US11993574B2, “Pyrazole and imidazole compounds for inhibition of IL-17 and RORgamma” (REATA PHARMACEUTICALS, INC., priority 2018, dated 2024).

Assays:
Type in all cases: cell-based
[1] = test system: IL-17A; experiment: IL-17 release from differentiated primary human T-cells (IL-17A HTRF assay); conditions: primary human CD4+ T cells differentiated into Th17 cells, 45-hour incubation, IL-17A in supernatant; read-out: hIL17 IC50
Procedure: C. IL-17 Release from Differentiated Primary Human T-Cells and Cell Viability
Primary human cryopreserved CD4+ T Cells (Lonza) were thawed according to the manufacturer's recommendations and plated either in Lymphocyte Growth Medium-3 (LGM-3) or X-VIVO 20 media (Lonza) in 96-well tissue culture plates at a density of ˜2×10^5 cells per well, and allowed to recover for approximately 4 hours at 37° C. with 5% CO2 in a humidified atmosphere. After the recovery step, DMSO (vehicle) or test compound at doses ranging from 2 to 500 nM or 4 to 1000 nM in a three-fold dilution series was added to the cells. Three replicate wells were tested for each treatment condition. Final DMSO concentration in each well was 0.1%. Immediately after treatment, CD4+ T cells were activated by adding Dynabeads Human T-Activator CD3/CD28 (Life Technologies; bead-to-cell ratio of 1:2.5) and differentiated into Th17 cells by adding a mixture of the following cytokines: transforming growth factor-β (TGF-β, 5 ng/mL), IL-6 (20 ng/mL), IL-23 (20 ng/mL), and IL-1β (10 ng/mL). Undifferentiated control cells received only cytokine IL-2 (50 ng/mL). All human recombinant cytokines were purchased from R&D Systems. Following a 45-hour incubation at 37° C. with 5% CO2 in a humidified atmosphere, the plates were centrifuged for 3 minutes at 250×g, and half of the supernatant was transferred to anew plate to be used in the IL-17A assay (see below). Cell viability was assessed in the original plate using the CyQuant Direct Assay (Life Technologies). CyQuant reagent (an amount equal to 10% of remaining media volume) was added to the wells, and the plates were then incubated at 37° C. for 75 min. Fluorescence was read on a SpectraMax M2e spectrophotometer at 480 nm (excitation) and 535 nm (emission) wavelengths. CyQuant values from test compound samples were normalized to those from DMSO-treated samples. The concentration of IL-17A in the supernatant was measured using the Homogeneous Time-Resolved Fluorescence (HTRF) assay (Cisbio Bioassays) according to the manufacturer's protocol. The assay was performed at room temperature in low volume, solid white 384-well plates (Greiner Bio-One). Samples and standards (serially-diluted human recombinant IL-17A (0 to 5,000 pg/mL concentration range; Cisbio Bioassays) were incubated with the anti-human IL-17A antibody conjugates (the HTRF donor and acceptor pair) for 16 hours and fluorescence was measured using a Pherastar FS microplate reader (BMG Labtech) in the HTRF mode (excitation at 337 nm and emission at 665 nm and 620 nm). IL-17A levels were assessed in duplicate aliquots of supernatant from each well resulting in a total of six readings per test condition. The 665 nm/620 nm signal ratio was calculated and the concentration of IL-17A in each sample was determined by interpolation from the standard curve. The amount of IL-17A from test compound treated samples were normalized to that of the vehicle-treated samples, set to 100%. Data were analyzed using GraphPad Prism (GraphPad Software, La Jolla California USA). Concentrations of test compound were transformed by taking the logarithm of each concentration used. The IC50 values for compound-mediated reduction in IL-17A levels and cell viability were determined by non-linear regression analysis using the log(inhibitor) vs. normalized response with variable slope equation. Inhibition that is closely correlated with reduced viability is considered to be non-specific.

[2] = target: T1, Human RAR-related Orphan Receptor Gamma (RORγ) (Homo sapiens, UniProt P51449); experiment: RORγ assay (GAL4-RORγ hybrid luciferase reporter, Indigo Biosciences); conditions: inverse-agonist activity, GAL4-RORγ reporter cells, 23 hours
T1 sequence (P51449 269-508 limits assumed): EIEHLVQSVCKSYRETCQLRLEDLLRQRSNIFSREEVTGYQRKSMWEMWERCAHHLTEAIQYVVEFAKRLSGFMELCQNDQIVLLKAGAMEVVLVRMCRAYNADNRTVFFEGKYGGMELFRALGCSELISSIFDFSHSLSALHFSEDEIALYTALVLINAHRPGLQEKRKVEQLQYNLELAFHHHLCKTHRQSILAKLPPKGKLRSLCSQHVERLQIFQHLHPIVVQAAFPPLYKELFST
Source text: B. RORγ Assay and Cell Viability
The RORγ assay system was purchased from Indigo Biosciences. This nuclear receptor assay utilizes a human cell line that has been engineered to express a hybrid form of the Human RAR-related Orphan Receptor Gamma (RORγ) at high levels. The N-terminal DNA binding domain (DBD) of the native RORγ receptor was substituted with the yeast GAL4-DBD to generate the GAL4-RORγ hybrid nuclear receptor. The reporter cell line is transfected with a plasmid that encodes the beetle luciferase gene under the control of the GAL4 upstream activating sequence (UAS). GAL4 binds to the UAS and increases transcription of downstream target genes. The GAL4-RORγ hybrid is constitutively active; therefore, the principle application of this reporter assay system is to screen test compounds to quantify inverse-agonist activities against human RORγ. Because the ligand binding domain (LBD) of RORγ is identical to the LBD of RORγt, this assay is an accurate surrogate for evaluating activity of experimental ligands against RORγt. To assess the RORγ inverse-agonist activity of the test compounds, reporter cells were plated in white 96-well plates in triplicate and were treated with DMSO (vehicle) or test compound (concentration ranges of 7.8-2000 nM) at 37° C. with 5% CO2 in a humidified atmosphere for 23 hours. After this incubation, luciferin was added to the wells and luciferase activity was determined by measuring the luminescence signal using a BMG Pherastar microplate reader. Viability was determined using the Live Cell Multiplex Assay (Indigo Biosciences). Values from test compound samples were normalized to those from DMSO-treated samples. Data were analyzed using GraphPad Prism version 6.00 for Windows (GraphPad Software, La Jolla Calif. USA). A non-linear regression analysis with log (inhibitor) vs. normalized response using a variable slope was applied to fit the data and determine the IC50 values for inhibition of RORγ and cell viability. Inhibition that is closely correlated with reduced viability is considered to be non-specific.

[3] = test system: Nrf2 transcription factor; experiment: AREc32 luciferase reporter assay; conditions: Homo sapiens; AREc32 cells, 19 hours; concentration required to increase GST ARE luciferase reporter activity by 2-fold; read-out: NRF2 ARE 2-Fold (EC2×)
Source text: A. AREc32 Luciferase Reporter Assay
The AREc32 luciferase reporter assay allows for quantitative assessment of the endogenous activity of the Nrt2 transcription factor in cultured mammalian cells. AREc32 cells are derived from MCF-7 human breast carcinoma cells that were stably transfected with a reporter construct that contains the firefly luciferase gene located downstream of eight copies of the rat GSTA2 antioxidant response element (ARE) sequence (Wang et al., 2006; Concept Life Sciences Integrated Discovery and Development Services Ltd (CLSIDDS)). Active Nrf2 binds to the ARE sequences and increases expression of the firefly luciferase gene. To assess the Nrf2-activating potential of the test compounds, AREc32 cells were plated in black […] plates at a density of 20,000 cells per well in triplicate in DMEM+10% FBS+0.8 mg/mL Geneticin and incubated at 37° C. with 5% CO2 in a humidified atmosphere. The next day, cells were treated with DMSO (vehicle) or test compound (concentration ranges of 0.4-200 nM or 3.9-2000 nM) for 19 hours. Luciferase activity was determined using the ONE-Glo Luciferase assay (Promega). The luminescence signal was measured on a BMG Pherastar microplate reader. The mean luminescence value from test compound-treated wells was normalized to that from DMSO-treated wells and was represented as fold-induction. Data were analyzed using GraphPad Prism version 6.00 for Windows, GraphPad Software, La Jolla Calif. USA. A non-linear regression curve with log (agonist) vs. response using a variable slope was used to fit the data. Where applicable, a maximum threshold value of 50-fold over DMSO was set. EC2× values were interpolated from the curve. EC2× corresponds to the concentration of test compound required to increase GST ARE Luciferase reporter activity by 2-fold.

| SMILES | IC50 [1] [nM] | IC50 [2] [nM] | EC (2-fold) [3] [µM] |
| --- | --- | --- | --- |
| C[C@H]1C(=O)C(C#N)=C[C@@]2(C)c3c(c(-c4ccncn4)nn3-c3ccc(-c4cncnc4)cc3)CC[C@H]12 [T50] | 326 | 115 | 0.977 |
| C[C@H]1C(=O)C(C#N)=C[C@@]2(C)c3c(c(-c4ccncn4)nn3-c3ccc(-c4cccnc4)cc3F)CC[C@H]12 [T53] | 88 | 57 | 0.489 |
| C[C@H]1C(=O)C(C#N)=C[C@@]2(C)c3c(c(-c4ccncn4)nn3-c3ccc(-c4ccnc(CO)c4)cc3)CC[C@H]12 [T55] | 149 | 174 | 0.609 |
| C[C@H]1C(=O)C(C#N)=C[C@@]2(C)c3c(c(-c4ccncn4)nn3-c3ccc(-c4cccc(F)c4)cn3)CC[C@H]12 [T58] | 43 | 128 | 0.355 |
| C[C@H]1C(=O)C(C#N)=C[C@@]2(C)c3c(c(-c4ccncn4)nn3-c3ccc(-c4cccc(CO)c4)cn3)CC[C@H]12 [T60] | 141 | 101 | 0.44 |
| C[C@H]1C(=O)C(C#N)=C[C@@]2(C)c3c(c(-c4ccncn4)nn3-c3ccc(C(F)(F)F)cn3)CC[C@H]12 [T63] | 151 | 201 | 0.725 |
| C[C@H]1C(=O)C(C#N)=C[C@@]2(C)c3c(c(-c4ccncn4)nn3-c3ccc(-c4ccccc4)nc3)CC[C@H]12 [T64] | 144 | 122 | 0.636 |
| C[C@H]1C(=O)C(C#N)=C[C@@]2(C)c3c(c(-c4ccccc4F)nn3-c3ccc(-c4ccccc4)cc3)CC[C@H]12 [T66] | 19 | 58 | 0.128 |
| C[C@H]1C(=O)C(C#N)=C[C@@]2(C)c3c(c(-c4cccnc4)nn3-c3ccc(-c4ccccc4)cc3)CC[C@H]12 [T68] | 27 | 36 | 0.248 |
| Cc1ccc(-c2nn(-c3ccc(-c4ccccc4)cc3)c3c2CC[C@@H]2[C@@H](C)C(=O)C(C#N)=C[C@@]32C)cc1 [T69] | 12 | 142 | 0.38 |
| C[C@H]1C(=O)C(C#N)=C[C@@]2(C)c3c(c(-c4cncnc4)nn3-c3ccc(-c4ccccc4)cc3)CC[C@H]12 [T70] | 58 | 75 | 0.472 |

More lines, main results first:

| IC50 [1] [nM] | IC50 [2] [nM] | SMILES | EC (2-fold) [3] [µM] |
| --- | --- | --- | --- |
| 26 | 68 | C[C@H]1C(=O)C(C#N)=C[C@@]2(C)c3c(c(-c4ccccc4)nn3-c3ccc(-c4ccc(N(C)C)cc4)cc3)CC[C@H]12 [T47] | 0.253 |
| 30 | 45 | C[C@H]1C(=O)C(C#N)=C[C@@]2(C)c3c(c(-c4ccncn4)nn3-c3ccc(-c4ccccc4)cc3)CC[C@H]12 [T48] | 0.187 |
| 52 | 59 | C[C@H]1C(=O)C(C#N)=C[C@@]2(C)c3c(c(-c4ccncn4)nn3-c3ccc(-c4cncc(F)c4)cc3)CC[C@H]12 [T49] | 0.392 |
| 91 | 48 | C[C@H]1C(=O)C(C#N)=C[C@@]2(C)c3c(c(-c4ccncn4)nn3-c3ccc(-c4cccnc4)cc3)CC[C@H]12 [T51] | 0.501 |
| 33 | 52 | C[C@H]1C(=O)C(C#N)=C[C@@]2(C)c3c(c(-c4ccncn4)nn3-c3ccc(-c4ccnc(CF)c4)cc3)CC[C@H]12 [T54] | 0.355 |
| 55 | 99 | C[C@H]1C(=O)C(C#N)=C[C@@]2(C)c3c(c(-c4ccncn4)nn3-c3ccc(-c4ccc(F)cc4)cn3)CC[C@H]12 [T56] | 0.433 |
| 67 | 96 | C[C@H]1C(=O)C(C#N)=C[C@@]2(C)c3c(c(-c4ccncn4)nn3-c3ccc(-c4cccnc4)cn3)CC[C@H]12 [T57] | 0.403 |
| 99 | 113 | C[C@H]1C(=O)C(C#N)=C[C@@]2(C)c3c(c(-c4ccncn4)nn3-c3ccc(-c4ccccc4)cn3)CC[C@H]12 [T59] | 0.449 |
| 115 | 136 | C[C@H]1C(=O)C(C#N)=C[C@@]2(C)c3c(c(-c4ccncn4)nn3-c3ccc(-c4cccc(CF)c4)cn3)CC[C@H]12 [T61] | 0.251 |
| 12 | 77 | C[C@H]1C(=O)C(C#N)=C[C@@]2(C)c3c(c(-c4ccc(F)cc4)nn3-c3ccc(-c4ccccc4)cc3)CC[C@H]12 [T65] | 0.201 |
| 26 | 49 | C[C@H]1C(=O)C(C#N)=C[C@@]2(C)c3c(c(-c4ccncc4)nn3-c3ccc(-c4ccccc4)cc3)CC[C@H]12 [T67] | 0.269 |
| 9 | 294 | CC(C)c1cccc(-c2nn(-c3ccc(-c4ccccc4)cc3)c3c2CC[C@@H]2[C@@H](C)C(=O)C(C#N)=C[C@@]32C)c1 [T71] | 0.257 |
